Test results reported in patent publication US20220332839A1, “USE OF PRG4 TO TREAT CANCER” (Lubris LLC, priority 2019, published 2022).
Entries after “also recorded” stand apart in the source; their conditions may differ.

What was measured:
Type in all cases: cell-based, human
lubricin (PRG4) mRNA = test: PRG4 mRNA expression in CAFs and ex vivo HCC specimens; settings: 48 hours; CAFs (p<0.01) and HCC samples (p<0.05)
Procedure: RNA extraction and cDNA synthesis: […] of frozen ex-vivo treated HCC tissues were ground with a mortar-pestle in the presence of liquid nitrogen until a thin powder was obtained. The ground tissues were lysed with 0.5-1 ml of RLT buffer+1% (BME) and then processed according to the manufacturer's recommendations (RNeasy kit, Qiagen). […] The obtained RNA was assayed for quality and concentration using the NanoDrop 2000/2000c (Thermo Fisher Scientific). cDNA was synthetized using the High Capacity cDNA reverse transcription kit (Thermo Fisher Scientific), according to relative datasheet.
Real time PCR: One ng/μl of cDNA was used in total 20 μl reaction mix in the presence of 500 nM of each forward and reverse primer referred to a specific gene of interest, and 2×SYBR green master mix (Bio-Rad). The reaction was conducted in a CFX96 Touch Real-Time Detection System (Bio-Rad).
CAFs isolation: Immediately after surgical resection, HCC tumoral and peritumoral specimens were minced into 0.5-1 cm pieces and left in MACS Tissue Storage Solution (Miltenyi Biotec). The tissues were then further cut into smaller size pieces (1-2 mm), washed three times in Hanks balanced salt solution (HBSS), and then incubated in HBSS in the presence of type IV collagenase (Thermo Fisher Scientific) and 3 mM CaCl2 at 37° C. under gentle rotation for 4 hours. At the end of this step, the dissociation was mechanically facilitated by pipetting up-down the digested tissues with a large size orifice 50 ml pipette. The floating cells were collected and washed three times with HBSS and seeded in normal culture conditions in IMDM+20% FBS. The decanted, partially digested tissue specimens were subjected to a second round of digestion (as previously described). The resulting dissociated cells were washed with HBSS and cultured in IMDM+20% FBS. […] The presence of minimal contaminating non-fibroblastic cells (mostly cancerous hepatocytes, cholangiocytes and macrophages) was evaluated using antibodies to EpCAM, CD45, and CD11b.

[1] = system: HCC cells (HLE, HLF, PLC/DC/19, Hep3B, PLC/PRF/5); test: 72-hour proliferation assay, all HCC cells
Procedure: (§1) Proliferation assay: In 100 μl complete medium, 3,000 cells were seeded in wells of a 96-well plate and left overnight to allow complete attachment. The next day (at time t=0 hours), the medium was removed and replaced with 100 μl of fresh medium in the presence/absence of Sorafenib (2.5 μM), Regorafenib (2.5 μM), rhPRG4 (12.5 to 100 μg/ml). Dimethyl sulfoxide (DMSO) and PBS+0.01% Tween-20 were used as vehicles of Sorafenib/Regorafenib, and rhPRG4, respectively. Cells in triplicate wells for each cell line were fixed at t=0 hours with 4% paraformaldehyde (PFA, pH 7.6, 10 min incubation), then stained with crystal violet (CV) and thoroughly washed to remove the excess staining. After 72 hours, the cells were fixed by adding 100 μl of 4% PFA directly to the medium (2% final PFA concentration, 20 min incubation), and processed for CV staining as previously described. Then, 100 or 200 μl of 1% sodium dodecyl-sulphate were added to the wells and the plates were left under shaking until complete CV release from stained cells. Optical density was at 595 nm wavelength measured using a plate reader.

Smad2 = test: phospho-Smad2 immunoblotting; settings: 100 pM TGFβ; 100 μg/mL rhPRG4; 12 h
Procedure: Cells were washed with PBS to remove all growth media. Appropriate volume of TNTE lysis buffer (50 mM Tris, 150 mM NaCl, 1 mM EDTA, 0.5% [v/v] Triton-X-100) containing protease and phosphatase inhibitors, was added to the cell monolayer and incubated at 4° C. under vigorous shaking for 20 minutes. Lysates were then collected in microcentrifuge tubes and centrifuged at 13,000 g for 10 minutes at 4° C. 5 μL of the lysate were subjected to protein concentration determination using Bradford-based protein assays (Bio-Rad Laboratories, Canada). Lysates were boiled for 3 minutes at 95° C. in dithiothreitol (DTT)-containing Laemmli sample buffer. For immunoprecipitation analyses, lysates were incubated with appropriate antibodies at 4° C. with gentle rocking for 3 h after which immunocomplexes were incubated with Protein G-conjugated agarose beads (UBPBio, USA) at 4° C. with gentle rocking for 3 h. Finally, the beads were washed with TNTE wash buffer (0.1% [v/v] Triton-X-100) and boiled for 5 minutes at 95° C. in dithiothreitol (DTT) containing Laemmli sample buffer. Immunoprecipitates and input lysates were then resolved by sodium dodecyl sulfate-polyacrylamide electrophoresis (SDS-PAGE) and transferred onto a nitrocellulose membrane (Bio-Rad Laboratories, Canada). […] Densitometric analyses were performed using Quantity One software (Bio-Rad Laboratories, Canada).

[2] = system: HLE, HLF and PLC/DC/19 cells; test: 72-hour proliferation assay, CD44 positive HCC cells; settings: drug 2.5 μM, rhPRG4 12.5 to 100 μg/ml
Procedure: as §1
Characterization of the primary HCC cells line PLC/DC/19: The primary HCC cell line, PLC/DC/19, was isolated from freshly collected surgically resected HCC specimen following the same isolation procedure to isolate CAFs. […]

For “TGFβ: recombinant human mature transforming growth factor beta (R&D systems) [reference compound]”, which “expression of lubricin mRNA” value (lubricin (PRG4) mRNA) is on record?
The value was “significantly enhanced the expression of lubricin”.

Which “cell proliferation, rhPRG4 alone” value [1] does the source give for “rhPRG4: full-length recombinant human PRG4 (lubricin) glycoprotein produced by CHO-M cells; residues 25-1404 of SEQ ID NO:1” here?
The value was “did not markedly impair the cell proliferation”.

And the “TGFβ-induced phosphorylation of Smad2” value (Smad2)?
The value was “did not appreciably alter TGFβ-induced phosphorylation of Smad2; also recorded: did not reduce TGFβ-induced Smad2 phosphorylation”.

And the “effectiveness of Sorafenib or Regorafenib when coupled with rhPRG4” value [2]?
The value was “strongly and synergistically improved their effectiveness”.
